Test results reported in the supplement of paper PMC11562712.

Assay: first-order primary biodegradation rate constant k (sorption-corrected, fDis-corrected) (d-1); higher = faster biodegradation
How it was run: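 River water and sieved sediment (50 g wet solid L^–1) from segments in Germany, Switzerland, Spain and Greece were spiked with 129 compounds at 1 μg L^–1 each and shaken in the dark at river water temperature (20.5 ± 3.5 °C) for 10 days, in three replicates. After filtration, water-phase subsamples were analysed by Orbitrap tandem mass spectrometry following ultra-high-performance liquid chromatography. First-order k was taken from log peak-area regression, corrected using azide-sterilised sorption controls and divided by the dissolved fraction, excluding invalid fits.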

[1] = river segment: Germany (DE) H_Contam, incubation temperature 24 °C
[2] = river segment: Germany (DE) T_Contam, incubation temperature 24 °C
[3] = river segment: Germany (DE) T_Pris, incubation temperature 24 °C
[4] = river segment: Greece (EL) A_Contam, incubation temperature 19 °C
[5] = river segment: Greece (EL) G_Contam, incubation temperature 19 °C
[6] = river segment: Greece (EL) G_Pris, incubation temperature 19 °C
[7] = river segment: Greece (EL) L_Contam, incubation temperature 19 °C
[8] = river segment: Spain (ES) B_Contam, incubation temperature 24 °C
[9] = river segment: Spain (ES) C_Contam, incubation temperature 24 °C
[10] = river segment: Spain (ES) L_Contam, incubation temperature 24 °C
[11] = river segment: Switzerland (CH) C_Contam, incubation temperature 17 °C
[12] = river segment: Switzerland (CH) R_Contam, incubation temperature 17 °C
[13] = river segment: Switzerland (CH) U_Contam, incubation temperature 17 °C
[14] = river segment: Switzerland (CH) U_Pris, incubation temperature 17 °C
[15] = river segment: Spain (ES) F_Pris_Salt, incubation temperature 24 °C

first-order primary biodegradation rate constant k [1] | first-order primary biodegradation rate constant k [2] | first-order primary biodegradation rate constant k [3] | first-order primary biodegradation rate constant k [4] | first-order primary biodegradation rate constant k [5] | first-order primary biodegradation rate constant k [6] | first-order primary biodegradation rate constant k [7] | first-order primary biodegradation rate constant k [8] | first-order primary biodegradation rate constant k [9] | first-order primary biodegradation rate constant k [10] | first-order primary biodegradation rate constant k [11] | first-order primary biodegradation rate constant k [12] | first-order primary biodegradation rate constant k [13] | first-order primary biodegradation rate constant k [14] | first-order primary biodegradation rate constant k [15] | Structure (SMILES)
0.0565 | 0.461 | 0.0811 | 0.435 | 0.0205 | 0.252 | 0.256 | 0.337 | 0.0822 | 0.373 | 0.0493 | 0.149 | 0.178 | 0.195 | – | CCOC(=O)C1CC(=O)C(=C(O)C2CC2)C(=O)C1 (configuration not stated) [Trinexapac-ethyl]
5.75 | 5.89 | 4.29 | 7.64 | 5.93 | 22 | 5.07 | 10.1 | 7.57 | 12.5 | 7.85 | 7.32 | 7.54 | 10.7 | 8.78 | CC1(C)C[C@@H]1C(=O)N/C(=C\CCCCSC[C@H](N)C(=O)O)C(=O)O [Cilastatin]
0.297 | 0.215 | 0.165 | 0.291 | 0.171 | 0.258 | 0.42 | 0.253 | 0.218 | 0.252 | 0.177 | 0.263 | 0.332 | 0.606 | 0.241 | COCCc1ccc(OCC(O)CNC(C)C)cc1 (configuration not stated) [Metoprolol]
0.262 | 0.415 | 0.0734 | 0.894 | 0.085 | 0.0394 | 0.276 | 1.52 | 0.276 | 0.895 | 0.172 | 0.144 | 0.368 | 0.69 | 0.215 | Cn1c(=O)c2c(ncn2C)n(C)c1=O [Caffeine]
0.295 | 0.469 | 0.123 | 0.408 | 0.184 | 0.438 | 0.566 | 1.03 | 0.169 | 0.263 | 0.382 | 0.411 | – | 2.17 | 0.0229 | CC(C)(Oc1ccc(CCNC(=O)c2ccc(Cl)cc2)cc1)C(=O)O [Bezafibrate]
0.129 | 0.416 | – | 0.0824 | 0.0668 | 0.237 | 0.123 | 1.13 | – | 1.27 | 0.0158 | 0.00496 | – | 0.0859 | – | COc1cc(NS(=O)(=O)c2ccc(N)cc2)nc(OC)n1 [Sulfadimethoxine]
1.06 | 0.52 | 0.422 | 0.369 | – | 0.0811 | 0.27 | 0.18 | 0.543 | 0.55 | 0.764 | 0.292 | 0.186 | 0.12 | 0.0548 | Cc1ccc(S(=O)(=O)O)cc1 [p-Toluenesulfonic acid]
2.34 | 3.16 | – | 3.21 | 3.16 | 0.888 | – | 1.24 | 1.28 | 2.82 | – | 3.87 | 2.14 | – | – | CC(=O)Nc1ccc(O)cc1 [Paracetamol]
– | 0.0377 | – | 0.00808 | – | – | 0.00883 | – | 0.00861 | 0.711 | – | – | – | – | – | NC(=O)N1c2ccccc2C=Cc2ccccc21 [Carbamazepine]
0.161 | – | – | – | – | 0.0725 | – | – | – | 0.426 | – | – | 0.0556 | – | – | CCCCC1=NC2(CCCC2)C(=O)N1Cc1ccc(-c2ccccc2-c2nnn[nH]2)cc1 [Irbesartan]
0.0696 | 0.497 | 0.23 | 0.235 | – | – | – | – | 0.0725 | – | 0.174 | – | 1.41 | 1.7 | 0.804 | Cc1cccc(Nc2ccccc2C(=O)O)c1C [Mefenamic acid]
0.0259 | 0.567 | 0.127 | 0.19 | – | 0.127 | 0.215 | 0.0245 | 0.0361 | – | 0.0239 | 0.0245 | 0.0346 | 0.0723 | – | CN(C)CCN1C(=O)c2ccccc2N(C)c2ccccc21 [Dibenzepin]
0.0977 | 0.382 | – | 0.161 | 0.396 | 0.441 | 0.195 | – | – | 1.07 | 0.0233 | – | – | 0.0441 | – | COc1ccc(NS(=O)(=O)c2ccc(N)cc2)nn1 [Sulfamethoxypyridazine]

Structure (SMILES) | first-order primary biodegradation rate constant k [1] | first-order primary biodegradation rate constant k [2] | first-order primary biodegradation rate constant k [3] | first-order primary biodegradation rate constant k [4] | first-order primary biodegradation rate constant k [5] | first-order primary biodegradation rate constant k [6] | first-order primary biodegradation rate constant k [7] | first-order primary biodegradation rate constant k [8] | first-order primary biodegradation rate constant k [9] | first-order primary biodegradation rate constant k [10] | first-order primary biodegradation rate constant k [11] | first-order primary biodegradation rate constant k [12] | first-order primary biodegradation rate constant k [13] | first-order primary biodegradation rate constant k [14] | first-order primary biodegradation rate constant k [15]
CCNc1nc(NC(C)(C)C)nc(SC)n1 [Terbutryn] | – | 0.0714 | – | 0.0617 | 0.247 | – | – | – | – | 0.134 | – | – | 0.116 | 0.068 | –
CCNc1nc(Cl)nc(NC(C)C)n1 [Atrazine] | 0.0725 | 0.136 | 0.025 | 0.0312 | – | – | – | 0.103 | 0.0247 | 0.451 | 0.0513 | – | 0.0313 | 0.0218 | –
Cc1ccc(-c2nc3ccc(C)cn3c2CC(=O)N(C)C)cc1 [Zolpidem] | 0.202 | 0.672 | 0.0723 | 0.464 | – | 0.19 | 2.27 | 0.709 | 0.0357 | 0.761 | 0.0346 | 0.0249 | 0.0604 | 0.135 | 0.00549
